Assay results reported in patent US7943770B2, “Fused quinoline derivative and use thereof” (Takeda Pharmaceutical Company Limited, priority 2004, dated 2011).

Molecular target: T1, hNK2 receptor (Homo sapiens, UniProt P21452)
T1 construct: host or cells: CHO cells
T1 sequence (P21452 1-398): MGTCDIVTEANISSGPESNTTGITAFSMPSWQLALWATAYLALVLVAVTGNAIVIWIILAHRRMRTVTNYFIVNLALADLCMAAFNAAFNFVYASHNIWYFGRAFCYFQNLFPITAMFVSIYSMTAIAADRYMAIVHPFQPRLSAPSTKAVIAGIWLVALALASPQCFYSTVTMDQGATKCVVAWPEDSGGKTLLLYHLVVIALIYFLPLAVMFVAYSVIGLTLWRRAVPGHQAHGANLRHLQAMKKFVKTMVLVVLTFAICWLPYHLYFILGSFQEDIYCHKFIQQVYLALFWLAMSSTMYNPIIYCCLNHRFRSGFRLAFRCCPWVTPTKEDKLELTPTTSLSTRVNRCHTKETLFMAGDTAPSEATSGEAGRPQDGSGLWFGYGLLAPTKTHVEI
Assay: Radio-ligand ([125I]-NKA) receptor binding inhibitory activity using membrane fraction of hNK2 receptor-expressing CHO cell
Conditions: membrane fraction of hNK2 receptor-expressing CHO cells, 25° C., 30 min
Procedure, shortened: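 Inhibition of [125I]-NKA binding ([…] solution added) measured after 30 min at 25 °C using hNK2-CHO membrane fraction (20 μg/mL suspension) in pH 7.4 Tris buffer containing MnCl2, BSA and protease inhibitors. Filter-bound counts read; activity calculated as fraction of specific binding, non-specific defined with unlabeled NKA.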

Row | IC50 [nM] | SMILES
1 | < 1 | O=C(Nc1ccccc1)N[C@@H]1CCCC[C@@H]1C(=O)N1CC[C@@H]2[C@H](C3CC3)Nc3ccccc3[C@@H]21 [Example 183, N-((1R,2S)-2-{[(3aR,4S,9bR)-4-Cyclopropyl-2,3,3a,4,5,9b-hexahydro-1H-pyrrolo[3,2-c]quinolin-1-yl]carbonyl}cyclohexyl)-N′-phenylurea]
2 | < 1 | COc1ccc(NC(=O)N[C@@H]2CCCC[C@@H]2C(=O)N2CC[C@@H]3[C@H](C4CC4)Nc4ccccc4[C@@H]32)cc1 [Example 184, N-((1R,2S)-2-{[(3aR,4S,9bR)-4-Cyclopropyl-2,3,3a,4,5,9b-hexahydro-1H-pyrrolo[3,2-c]quinolin-1-yl]carbonyl}cyclohexyl)-N′-(4-methoxyphenyl)urea]
3 | < 10 | CCNC(=O)N[C@@H]1CCCC[C@@H]1C(=O)N1CC[C@@H]2[C@H](C3CC3)Nc3ccccc3[C@@H]21 [Example 185, N-((1R,2S)-2-{[(3aR,4S,9bR)-4-Cyclopropyl-2,3,3a,4,5,9b-hexahydro-1H-pyrrolo[3,2-c]quinolin-1-yl]carbonyl}cyclohexyl)-N′-ethylurea]
4 | < 1 | O=C(Nc1ccccc1)N[C@@H]1CCCC[C@@H]1C(=O)N1CC[C@@H]2[C@H](c3ccsc3)Nc3ccccc3[C@@H]21 [Example 186, N-Phenyl-N′-((1R,2S)-2-{[(3aR,4R,9bR)-4-(3-thienyl)-2,3,3a,4,5,9b-hexahydro-1H-pyrrolo[3,2-c]quinolin-1-yl]carbonyl}cyclohexyl)urea]
5 | < 1 | CCNC(=O)N[C@@H]1CCCC[C@@H]1C(=O)N1CC[C@@H]2[C@H](c3ccsc3)Nc3ccccc3[C@@H]21 [Example 187, N-Ethyl-N′-((1R,2S)-2-{[(3aR,4R,9bR)-4-(3-thienyl)-2,3,3a,4,5,9b-hexahydro-1H-pyrrolo[3,2-c]quinolin-1-yl]carbonyl}cyclohexyl)urea]
6 | < 1 | CCCCNC(=O)N[C@@H]1CCCC[C@@H]1C(=O)N1CC[C@@H]2[C@H](c3ccsc3)Nc3ccccc3[C@@H]21 [Example 188, N-Butyl-N′-((1R,2S)-2-{[(3aR,4R,9bR)-4-(3-thienyl)-2,3,3a,4,5,9b-hexahydro-1H-pyrrolo[3,2-c]quinolin-1-yl]carbonyl}cyclohexyl)urea]
7 | < 1 | O=C(N[C@@H]1CCCC[C@@H]1C(=O)N1CC[C@@H]2[C@H](c3ccsc3)Nc3ccccc3[C@@H]21)c1ccc2[nH]nnc2c1 [Example 189, N-((1R,2S)-2-{[(3aR,4R,9bR)-4-(3-Thienyl)-2,3,3a,4,5,9b-hexahydro-1H-pyrrolo[3,2-c]quinolin-1-yl]carbonyl}cyclohexyl)-1H-1,2,3-benzotriazole-5-carboxamide]
8 | < 1 | NC(=O)c1ccc(C(=O)N[C@@H]2CCCC[C@@H]2C(=O)N2CC[C@@H]3[C@H](c4ccsc4)Nc4ccccc4[C@@H]32)cc1 [Example 190, N-((1R,2S)-2-{[(3aR,4R,9bR)-4-(3-Thienyl)-2,3,3a,4,5,9b-hexahydro-1H-pyrrolo[3,2-c]quinolin-1-yl]carbonyl}cyclohexyl)terephthalamide]
9 | < 1 | Cc1cc(C(=O)N[C@@H]2CCCC[C@@H]2C(=O)N2CC[C@@H]3[C@H](c4ccsc4)Nc4ccccc4[C@@H]32)ccc1C(N)=O [Example 191, 2-Methyl-N^4-((1R,2S)-2-{[(3aR,4R,9bR)-4-(3-thienyl)-2,3,3a,4,5,9b-hexahydro-1H-pyrrolo[3,2-c]quinolin-1-yl]carbonyl}cyclohexyl)terephthalamide]
10 | < 1 | Cc1nc2cc(C(=O)N[C@@H]3CCCC[C@@H]3C(=O)N3CC[C@@H]4[C@H](c5ccsc5)Nc5ccccc5[C@@H]43)ccc2[nH]1 [Example 192, 2-Methyl-N-((1R,2S)-2-{[(3aR,4R,9bR)-4-(3-thienyl)-2,3,3a,4,5,9b-hexahydro-1H-pyrrolo[3,2-c]quinolin-1-yl]carbonyl}cyclohexyl)-1H-benzimidazole-5-carboxamide]
11 | < 1 | C[C@]12CCN(C(=O)[C@H]3CCCC[C@H]3NC(=O)c3ccccc3)[C@H]1c1ccccc1N[C@H]2c1ccsc1 [Example 193, N-((1R,2S)-2-{[(3aR,4R,9bR)-3a-Methyl-4-(3-thienyl)-2,3,3a,4,5,9b-hexahydro-1H-pyrrolo[3,2-c]quinolin-1-yl]carbonyl}cyclohexyl)benzamide]
12 | < 1 | CCC[C@@H]1Nc2ccccc2[C@H]2[C@@H]1CCN2C(=O)[C@H]1CCCC[C@H]1NC(=O)c1ccc(OC)cc1 [Example 194, 4-Methoxy-N-((1R,2S)-2-{[(3aR,4S,9bR)-4-propyl-2,3,3a,4,5,9b-hexahydro-1H-pyrrolo[3,2-c]quinolin-1-yl]carbonyl}cyclohexyl)benzamide]
13 | < 1 | CCC[C@@H]1Nc2ccccc2[C@H]2[C@@H]1CCN2C(=O)[C@H]1CCCC[C@H]1NC(=O)Nc1ccccc1 [Example 195, N-Phenyl-N′-((1R,2S)-2-{[(3aR,4S,9bR)-4-propyl-2,3,3a,4,5,9b-hexahydro-1H-pyrrolo[3,2-c]quinolin-1-yl]carbonyl}cyclohexyl)urea]
14 | < 1 | CCC[C@@H]1Nc2ccccc2[C@H]2[C@@H]1CCN2C(=O)[C@H]1CCCC[C@H]1NC(=O)Nc1ccc(OC)cc1 [Example 196, N-(4-Methoxyphenyl)-N′-((1R,2S)-2-{[(3aR,4S,9bR)-4-propyl-2,3,3a,4,5,9b-hexahydro-1H-pyrrolo[3,2-c]quinolin-1-yl]carbonyl}cyclohexyl)urea]
15 | < 1 | CCC[C@@H]1Nc2ccccc2[C@H]2[C@@H]1CCN2C(=O)[C@H]1CCCC[C@H]1NC(=O)Nc1ccc(F)cc1 [Example 197, N-(4-Fluorophenyl)-N′-((1R,2S)-2-{[(3aR,4S,9bR)-4-propyl-2,3,3a,4,5,9b-hexahydro-1H-pyrrolo[3,2-c]quinolin-1-yl]carbonyl}cyclohexyl)urea]
16 | < 10 | CCC[C@@H]1Nc2ccccc2[C@H]2[C@@H]1CCN2C(=O)[C@H]1CCCC[C@H]1NC(=O)NCC [Example 198, N-Ethyl-N′-((1R,2S)-2-{[(3aR,4S,9bR)-4-propyl-2,3,3a,4,5,9b-hexahydro-1H-pyrrolo[3,2-c]quinolin-1-yl]carbonyl}cyclohexyl)urea]
17 | < 10 | CCCCNC(=O)N[C@@H]1CCCC[C@@H]1C(=O)N1CC[C@@H]2[C@H](CCC)Nc3ccccc3[C@@H]21 [Example 199, N-Butyl-N′-((1R,2S)-2-{[(3aR,4S,9bR)-4-propyl-2,3,3a,4,5,9b-hexahydro-1H-pyrrolo[3,2-c]quinolin-1-yl]carbonyl}cyclohexyl)urea]
18 | < 1 | CCC[C@@H]1Nc2ccccc2[C@H]2[C@@H]1CCN2C(=O)[C@H]1CCCC[C@H]1NC(=O)Nc1ccc2c(c1)OCO2 [Example 200, N-1,3-Benzodioxol-5-yl-N′-((1R,2S)-2-{[(3aR,4S,9bR)-4-propyl-2,3,3a,4,5,9b-hexahydro-1H-pyrrolo[3,2-c]quinolin-1-yl]carbonyl}cyclohexyl)urea]
19 | < 1 | CCC[C@@H]1Nc2ccccc2[C@H]2[C@@H]1CCN2C(=O)[C@H]1CCCC[C@H]1NC(=O)c1ccc2[nH]c(C)nc2c1 [Example 201, 2-methyl-N-((1R,2S)-2-{[(3aR,4S,9bR)-4-propyl-2,3,3a,4,5,9b-hexahydro-1H-pyrrolo[3,2-c]quinolin-1-yl]carbonyl}cyclohexyl)-1H-benzimidazole-5-carboxamide]
20 | < 1 | CCC[C@@H]1Nc2ccccc2[C@H]2[C@@H]1CCN2C(=O)[C@H]1CCCC[C@H]1NC(=O)c1ccc(C#N)cc1 [Example 202, 4-Cyano-N-((1R,2S)-2-{[(3aR,4S,9bR)-4-propyl-2,3,3a,4,5,9b-hexahydro-1H-pyrrolo[3,2-c]quinolin-1-yl]carbonyl}cyclohexyl)benzamide]
21 | < 1 | COC[C@@H]1Nc2ccccc2[C@H]2[C@@H]1CCN2C(=O)[C@H]1CCCC[C@H]1NC(=O)Nc1ccccc1 [Example 204, N-((1R,2S)-2-{[(3aR,4R,9bR)-4-(Methoxymethyl)-2,3,3a,4,5,9b-hexahydro-1H-pyrrolo[3,2-c]quinolin-1-yl]carbonyl}cyclohexyl)-N′-phenylurea]
22 | < 1 | COC[C@@H]1Nc2ccccc2[C@H]2[C@@H]1CCN2C(=O)[C@H]1CCCC[C@H]1NC(=O)Nc1ccc(F)cc1 [Example 205, N-(4-Fluorophenyl)-N′-((1R,2S)-2-{[(3aR,4R,9bR)-4-(methoxymethyl)-2,3,3a,4,5,9b-hexahydro-1H-pyrrolo[3,2-c]quinolin-1-yl]carbonyl}cyclohexyl)urea]
23 | < 1 | COC[C@@H]1Nc2ccccc2[C@H]2[C@@H]1CCN2C(=O)[C@H]1CCCC[C@H]1NC(=O)Nc1ccc(OC)cc1 [Example 206, N-((1R,2S)-2-{[(3aR,4R,9bR)-4-(Methoxymethyl)-2,3,3a,4,5,9b-hexahydro-1H-pyrrolo[3,2-c]quinolin-1-yl]carbonyl}cyclohexyl)-N′-(4-methoxyphenyl)urea]
24 | < 1 | COC[C@@H]1Nc2ccccc2[C@H]2[C@@H]1CCN2C(=O)[C@H]1CCCC[C@H]1NC(=O)Nc1ccc2c(c1)OCO2 [Example 208, N-1,3-Benzodioxol-5-yl-N′-((1R,2S)-2-{[(3aR,4R,9bR)-4-(methoxymethyl)-2,3,3a,4,5,9b-hexahydro-1H-pyrrolo[3,2-c]quinolin-1-yl]carbonyl}cyclohexyl)urea]
25 | < 1 | COC[C@@H]1Nc2ccccc2[C@H]2[C@@H]1CCN2C(=O)[C@H]1CCCC[C@H]1NC(=O)/C=C/c1ccc(C(F)(F)F)cc1 [Example 209]
